Measured values published in patent publication US7892354B2, “Process for the parallel detection of crystalline forms of molecular solids” (Solvias AG, priority 2003, dated 2011).
Counter-ions that a name gives are not always drawn.

Experiments:
[1] = Parallel phase equilibrium experiments in suspensions of 32 solvents and solvent mixtures, Raman spectra grouped into classes; type: physicochemical; conditions: 64 experiments, 32 solvents/solvent mixtures; for number of different classes of Raman spectra (ideally corresponding to different solid forms of sertraline HCl): 48 hours shaking, temperature cycled between 18° C. and 28° C., similarity factor 0.5; for occurrence of form II among the solid forms obtained: 48 hours, 18° C. to 28° C., verified against reference spectra, HCl
Method: A reference experiment with the stable form I as starting material is designed in such a way that 64 experiments are carried out for establishing the phase equilibrium in suspensions of 32 different solvents and solvent mixtures. For this purpose, 32 of the vessels in a 96-well quartz microtitre plate are each filled with about 5 mg of sertraline HCl form 1, and 100 microlitres of the corresponding solvent are then introduced into each vessel in accordance with the plan below, and the plate is closed with seals.
The microtitre plate is then shaken on a mechanical shaker (Eppendorf, Thermomixer Comfort) for 48 hours, the temperature of the mechanical shaker being changed cydically between 18° C. and 28° C. A cycle corresponds to one hour. The shaking frequency is 500 per minute. After a time of 48 hours for establishing equilibrium, the microtitre plate is removed from the mechanical shaker and the solid in each of the occupied vessels is investigated directly in the suspension using a Raman microscope (Renishaw Raman microscope system RM 1000). One or two Raman spectra are recorded in each vessel. The solvents in each vessel are then evaporated with the aid of a seal system having flow-through channels according to WO 03/026797 under nitrogen, a flow rate of about 0.03 litre/hour being established. Altogether, 80 Raman spectra are recorded in 64 experiments (32 directly from the suspension and 32 from the dried suspension).
The measured Raman spectra are divided into different classes of spectra on the basis of their differences. A separate evaluation programme which carries out an automatic comparison of measured spectra on the basis of the wave numbers of emission maxima in the Raman spectrum and generates a classification is used for this purpose. A distinguishing criterion is a similarity factor which is determined by visual assessment of selected, individual spectra.
Similarly to the reference example described above, 64 experiments are carried out in 32 different solvents and solvent mixtures in 32 vessels of a 96-well microtitre plate. For this purpose, each of the 32 vessels is occupied with 3 mg of the amorphous form. 100 microlitres of solvent according to the plan given in the comparative example are then filled into each of the 32 vessels, and the plate is closed with seals. The microtitre plate is then shaken on a mechanical shaker (Eppendorf, Thermomixer Comfort), the temperature of the mechanical shaker being changed cyclically between 18° C. and 28° C. A cycle corresponds to one hour, and the shaking frequency is 500 per minute. After a time of 48 hours for establishing the equilibrium, the microtitre plate is removed from the mechanical shaker and the solid in each of the occupied vessels is investigated directly in the suspension using a Raman microscope. One or two Raman spectra are recorded in each vessel. The solvents in each vessel are then evaporated with the aid of a seal system having flow-through channels according to WO 03/026797 under nitrogen, a flow rate of about 0.03 litre per hour being established. Altogether, 92 Raman spectra are recorded in 64 experiments (32 directly from the suspension and 32 from the dried suspension).

[2] = Morisette et al., Advanced Drug Delivery Reviews 56 (2004) 275-300; cited from earlier work

| number of different classes of Raman spectra (ideally corresponding to different solid forms of sertraline HCl) [1] | Compound | occurrence of form II among the solid forms obtained [1] | number of different crystal forms mentioned in the literature [2] |
| --- | --- | --- | --- |
| 25 | CN[C@H]1CC[C@@H](c2ccc(Cl)c(Cl)c2)c2ccccc21 [amorphous form of sertraline HCl, sertraline HCl] | both the thermodynamically stable form I and the important form II are contained in these classes |  |
| 16 | CN[C@H]1CC[C@@H](c2ccc(Cl)c(Cl)c2)c2ccccc21 [isopropanol solvate of sertraline HCl, sertraline HCl] |  |  |
| 11 | CN[C@H]1CC[C@@H](c2ccc(Cl)c(Cl)c2)c2ccccc21 [sertraline HCl form I, sertraline HCl] | the important form II did not form |  |
|  | CN[C@H]1CC[C@@H](c2ccc(Cl)c(Cl)c2)c2ccccc21 [sertraline HCl] |  | about 27 |
